{"source": "the supplement of paper PMC10307832", "assay_in_all_cases": "relative viability (nuclei count vs DMSO), 5 days (fraction); higher = more cells survive", "key": {"NVP-TAE684": {"compound": "COc1cc(N2CCC(N3CCN(C)CC3)CC2)ccc1Nc1ncc(Cl)c(Nc2ccccc2S(=O)(=O)C(C)C)n1 [NVP-TAE684]", "summary_of_the_method": "(§1)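 Nuclei counted with MetaXpress define viability as the ratio of treated to vehicle wells, given as a median across plates. The lung cancer cell lines were in 1536-well plates, pinned with five √10-spaced library-drug doses and imaged at 4× after 5 days and Hoechst staining. Plates passed with control CV below 25% and at least one doubling.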"}, "[1]": {"compound": "C1=CC=C2C(=C1)N=C(S2)C(C#N)C3=NC(=NC=C3)NCCC4=CN=CC=C4", "summary_of_the_method": "as §1"}, "CUDC-101": {"compound": "C#Cc1cccc(Nc2ncnc3cc(OC)c(OCCCCCCC(=O)NO)cc23)c1 [CUDC-101]", "summary_of_the_method": "as §1"}, "Vandetanib": {"compound": "COc1cc2/c(=N/c3ccc(Br)cc3F)nc[nH]c2cc1OCC1CCN(C)CC1 [Vandetanib]", "summary_of_the_method": "as §1"}}, "data": [{"cell line": "UMC-11", "values": [{"measurement": "relative viability", "setting": "NVP-TAE684; 0.2 µM", "result": 1.04}, {"measurement": "relative viability", "setting": "NVP-TAE684; 0.6325 µM", "result": 0.876}, {"measurement": "relative viability", "setting": "NVP-TAE684; 2 µM", "result": 0.465}, {"measurement": "relative viability", "setting": "[1]; 0.005 µM", "result": 0.884}, {"measurement": "relative viability", "setting": "[1]; 0.01581 µM", "result": 1.01}, {"measurement": "relative viability", "setting": "[1]; 0.05 µM", "result": 0.96}, {"measurement": "relative viability", "setting": "[1]; 0.1581 µM", "result": 1.16}, {"measurement": "relative viability", "setting": "[1]; 0.5 µM", "result": 0.967}, {"measurement": "relative viability", "setting": "CUDC-101; 0.01 µM", "result": 1.03}, {"measurement": "relative viability", "setting": "CUDC-101; 0.03162 µM", "result": 0.957}, {"measurement": "relative viability", "setting": "CUDC-101; 0.1 µM", "result": 0.927}, {"measurement": "relative viability", "setting": "CUDC-101; 0.3162 µM", "result": 0.705}, {"measurement": "relative viability", "setting": "CUDC-101; 1 µM", "result": 0.31}, {"measurement": "relative viability", "setting": "Vandetanib; 0.02 µM", "result": 0.94}, {"measurement": "relative viability", "setting": "Vandetanib; 0.06325 µM", "result": 0.901}, {"measurement": "relative viability", "setting": "Vandetanib; 0.2 µM", "result": 0.9}, {"measurement": "relative viability", "setting": "Vandetanib; 0.6325 µM", "result": 0.91}, {"measurement": "relative viability", "setting": "Vandetanib; 2 µM", "result": 0.964}]}]}
